Assay results reported in ChEMBL document CHEMBL1201862, “PubChem BioAssay data set” (2004).
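Five compound concentrations were applied to cells in 96-well plates for 48 hours; endpoints were derived by simple linear interpolation of the resulting dose-response curve. Here, GI50 denotes the concentration required for 50% inhibition of growth.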 The source made the active and inactive calls. No stated cut-off is given here; in the data, active = GI50 up to about 1.1 µM and inactive = higher.

How the values were obtained:
Experiment in all cases: NCI anticancer screen, dose series, 48 h
[1] = tested on: 786-0
[2] = tested on: A498
[3] = tested on: A549
[4] = tested on: ACHN
[5] = tested on: BT-549
[6] = tested on: CAKI-1
[7] = tested on: CCRF-CEM
[8] = tested on: COLO 205
[9] = tested on: DU-145
[10] = tested on: EKVX
[11] = tested on: HCC 2998
[12] = tested on: HCT-116
[13] = tested on: HCT-15
[14] = tested on: HOP-62
[15] = tested on: HOP-92
[16] = tested on: HT-29
[17] = tested on: Hs-578T
[18] = tested on: K562
[19] = tested on: KM12
[20] = tested on: LOX IMVI
[21] = tested on: M14
[22] = tested on: MCF7
[23] = tested on: MDA-MB-231
[24] = tested on: MDA-MB-435
[25] = tested on: MDA-N
[26] = tested on: MOLT-4
[27] = tested on: Malme-3M
[28] = tested on: NCI-H226
[29] = tested on: NCI-H23
[30] = tested on: NCI-H460
[31] = tested on: NCI-H522
[32] = tested on: NCI/ADR-RES
[33] = tested on: OVCAR-3
[34] = tested on: OVCAR-4
[35] = tested on: OVCAR-5
[36] = tested on: OVCAR-8
[37] = tested on: PC-3
[38] = tested on: RPMI-8226
[39] = tested on: RXF 393
[40] = tested on: SF-268
[41] = tested on: SF-295
[42] = tested on: SF-539
[43] = tested on: SK-MEL-28
[44] = tested on: SK-MEL-2
[45] = tested on: SK-MEL-5
[46] = tested on: SK-OV-3
[47] = tested on: SN12C
[48] = tested on: SNB-19
[49] = tested on: SNB-75
[50] = tested on: SR
[51] = tested on: SW-620
[52] = tested on: T47D
[53] = tested on: TK-10
[54] = tested on: U-251
[55] = tested on: UACC-257
[56] = tested on: UACC-62
[57] = tested on: UO-31
[58] = tested on: HL-60
[59] = tested on: IGROV-1

With `CCOC(=O)c1c(N2CCCC2)[nH]c(=O)c(C(c2cccs2)c2c(O)c(C(=O)OCC)c(N3CCCC3)[nH]c2=O)c1O` the GI50 [1] was > 100 µM (inactive), the GI50 [2] was > 100 µM (inactive) and the GI50 [3] was > 100 µM (inactive). For the same compound, the GI50 [4] was > 100 µM (inactive), the GI50 [5] was > 100 µM (inactive) and the GI50 [6] was > 100 µM (inactive). The GI50 [7] was 78.2 µM (inactive), the GI50 [8] was > 100 µM (inactive) and the GI50 [9] was > 100 µM (inactive). The GI50 [10] was > 100 µM (inactive), the GI50 [11] was > 100 µM (inactive) and the GI50 [12] was > 100 µM (inactive). For the same compound, the GI50 [13] was > 100 µM, the GI50 [14] was > 100 µM (inactive) and the GI50 [15] was > 100 µM (inactive). For the same compound, the GI50 [16] was > 100 µM (inactive), the GI50 [17] was > 100 µM (inactive) and the GI50 [18] was > 100 µM (inactive). The GI50 [19] was > 100 µM (inactive), the GI50 [20] was > 100 µM (inactive) and the GI50 [21] was > 100 µM (inactive). For the same compound, the GI50 [22] was > 100 µM (inactive), the GI50 [23] was > 100 µM (inactive) and the GI50 [24] was > 100 µM (inactive). The GI50 [25] was > 100 µM (inactive), the GI50 [26] was > 100 µM (inactive) and the GI50 [27] was > 100 µM (inactive). The GI50 [28] was > 100 µM (inactive), the GI50 [29] was > 100 µM (inactive) and the GI50 [30] was > 100 µM (inactive). The GI50 [31] was > 100 µM (inactive), the GI50 [32] was > 100 µM (inactive) and the GI50 [33] was > 100 µM (inactive). The GI50 [34] was > 100 µM (inactive), the GI50 [35] was > 100 µM (inactive) and the GI50 [36] was > 100 µM (inactive). For the same compound, the GI50 [37] was > 100 µM (inactive), the GI50 [38] was 54.6 µM (inactive) and the GI50 [39] was > 100 µM (inactive). The GI50 [40] was > 100 µM (inactive), the GI50 [41] was > 100 µM (inactive) and the GI50 [42] was > 100 µM (inactive). For the same compound, the GI50 [43] was > 100 µM (inactive), the GI50 [44] was > 100 µM (inactive) and the GI50 [45] was > 100 µM (inactive). The GI50 [46] was > 100 µM (inactive), the GI50 [47] was > 100 µM (inactive) and the GI50 [48] was > 100 µM (inactive). For the same compound, the GI50 [49] was > 100 µM (inactive), the GI50 [50] was > 100 µM (inactive) and the GI50 [51] was > 100 µM (inactive). The GI50 [52] was > 100 µM (inactive), the GI50 [53] was > 100 µM (inactive) and the GI50 [54] was > 100 µM (inactive). For the same compound, the GI50 [55] was > 100 µM (inactive), the GI50 [56] was > 100 µM (inactive) and the GI50 [57] was > 100 µM (inactive).

`O=C(OCc1ccccc1)N(CCCCN(CCCNC(=O)C(F)(F)F)C(=O)OCc1ccccc1)CCCNC(=O)C(F)(F)F` was tested, and the GI50 [1] was > 100 µM (inactive), the GI50 [2] was > 100 µM (inactive) and the GI50 [3] was > 66.8 µM (inactive). For the same compound, the GI50 [4] was 23.9 µM (inactive), the GI50 [5] was > 100 µM (inactive) and the GI50 [6] was 1.56 µM (inactive). The GI50 [7] was > 100 µM (inactive), the GI50 [8] was > 88.1 µM (inactive) and the GI50 [9] was > 100 µM (inactive). The GI50 [10] was > 100 µM (inactive), the GI50 [11] was > 100 µM (inactive) and the GI50 [12] was > 100 µM (inactive). For the same compound, the GI50 [13] was > 100 µM, the GI50 [58] was > 100 µM (inactive) and the GI50 [14] was > 100 µM (inactive). For the same compound, the GI50 [15] was > 100 µM (inactive), the GI50 [16] was > 28.4 µM (inactive) and the GI50 [17] was > 100 µM (inactive). The GI50 [59] was > 100 µM (inactive), the GI50 [18] was > 100 µM (inactive) and the GI50 [19] was > 100 µM (inactive). For the same compound, the GI50 [20] was > 100 µM (inactive), the GI50 [21] was > 100 µM (inactive) and the GI50 [22] was > 100 µM (inactive). The GI50 [23] was > 100 µM (inactive), the GI50 [24] was > 100 µM (inactive) and the GI50 [25] was > 100 µM (inactive). The GI50 [26] was 8.87 µM (inactive), the GI50 [28] was > 100 µM (inactive) and the GI50 [29] was > 100 µM (inactive). The GI50 [30] was > 83.6 µM (inactive), the GI50 [31] was 2.94 µM (inactive) and the GI50 [32] was 22.5 µM (inactive). For the same compound, the GI50 [33] was > 100 µM (inactive), the GI50 [34] was > 100 µM (inactive) and the GI50 [35] was > 100 µM (inactive). For the same compound, the GI50 [36] was > 100 µM (inactive), the GI50 [37] was 36.9 µM (inactive) and the GI50 [38] was > 100 µM (inactive). The GI50 [39] was > 100 µM (inactive), the GI50 [40] was > 100 µM (inactive) and the GI50 [41] was > 100 µM (inactive). For the same compound, the GI50 [42] was > 100 µM (inactive), the GI50 [43] was > 100 µM (inactive) and the GI50 [44] was > 100 µM (inactive). For the same compound, the GI50 [45] was > 36.8 µM (inactive), the GI50 [46] was > 100 µM (inactive) and the GI50 [47] was > 100 µM (inactive). For the same compound, the GI50 [48] was 4.2 µM (inactive), the GI50 [49] was > 100 µM (inactive) and the GI50 [50] was > 100 µM (inactive). The GI50 [51] was > 100 µM (inactive), the GI50 [52] was > 100 µM (inactive) and the GI50 [53] was > 100 µM (inactive). For the same compound, the GI50 [54] was > 100 µM (inactive), the GI50 [55] was > 100 µM (inactive) and the GI50 [56] was > 100 µM (inactive). The GI50 [57] was 3.56 µM (inactive).
